# According to patent publication US5053431A, “Derivatives of chrysophanol as topoisomerase II inhibitors” (Sloan-Kettering Institute For Cancer Research, priority 1990, dated 1991):
# Like-named read-outs stand apart in the source and are kept apart here.
# Assays:
# [1] = system: human leukemia HL-60 cells; experiment: HL-60 cell growth inhibition (72 h); format: cell-based; conditions: HL-60, 72 h, read-out: ID50, M [HL-60 cell growth (72 h)] (A)
# Protocol: For cell growth inhibition studies, HL-60 cells […]) were grown in RPMI 1640 media at 37° C. in humidified 5% CO2 for 72 h. Viable cells were counted with the trypan blue exclusion method. The fractional inhibitions at four or five concentrations of compounds (in 0.2% DMSO) were analyzed with a median-effect plot (Chou, T.-C., et al., Adv. Enzyme Regul. 22:27 (1984)) by using a computer program. (Chou, J.; Chou, T.-C. Dose-Effect Analyses with Microcomputer. Quantitation of ID50, LD50, Synergism, Antagonism, Low-dose Risk, Receptor-Binding and Enzyme Kinetics; IBM-PC Series, Elsevier-Biosoft, Elsevier Scientific: Cambridge, U.K., (1986)). The median-effect concentration (ID50) was automatically determined for the x intercept of the median-effect plot. Cell growth in the absence of a compound and in the presence of DMSO was used as a control. DMSO (0.2%) alone inhibited cell growth 3.8±1.2% during the 72-h incubation period.
# [2] = system: DNA (native and thermally denatured); experiment: Spectrophotometric study of DNA interaction; format: binding, calf thymus; conditions: for interaction with DNA: absorption spectra, native and thermally denatured DNA; for interaction with DNA on increase of salt concentration: Na concentration increased from 0.01 to 0.1 M
# Protocol: Some representative compounds were studied for their ability to interact with nucleic acids in solution by comparison of the electronic spectrum of drug alone with that of the drug in the presence of an excess of nucleic acid. All drugs studied have an absorption band in the visible region, separate from the absorption band of the nucleic acids, and therefore any changes in band intensity and position were indicative of drug chromophore-DNA interaction.
# Absorption spectra were measured with an IBM 9410 UV-visible spectrometer interfaced to an HP 9826 computer. Small volumes of the stock drug solutions (2 mg/mL in Me2 SO) were added to 2 mL of buffer (0.01 or 0.1 M NaCl, 5 mM Hepes, pH 7) to obtain a final drug concentration of 5-15 μM, or to the solution of native or thermally denatured DNA (0.2 and 0.1 mM, respectively) in the buffer. After incubation at room temperature for 10 min, the spectra were recorded in the 300-600 nm range (increment 1 nm) and corrected by subtracting the spectrum of the blank which was measured before addition of the drug.
# [3] = system: mouse leukemia L1210 cells; experiment: Inhibition of L1210 cell growth; format: cell-based
# Protocol: Preliminary biological data for inhibiting cell growth of murine L1210 leukemic cells and human acute promyelocytic leukemia cells (HL-60) during 72 h of exposure to the compounds are given in Table IV. The potencies for inhibiting [^3 H]TdR incorporation into DNA in HL-60 cells during the initial 30-min period are also given in Table IV. It is interesting to note that 1,8-di-O-methyl derivatives are uniformly devoid of activity against L1210 leukemic cells. […] The B/A ratios allow an indirect estimation of whether or not cytotoxicities exerted by these analogues are primarily due to initial inhibition of DNA synthesis. […] Whether these analogues, like m-AMSA, ellipticine, or anthracyclines, act by inhibiting DNA topoisomerase II remains to be explored. […] Our preliminary experiments indicate that the compounds arrest cells in the S and/or G2 phases of the cell cycle (unpublished results).
# [4] = system: [^3 H]TdR incorporation into DNA in HL-60 cells; experiment: Inhibition of [3H]TdR incorporation into DNA in HL-60 cells (initial 30 min); format: cell-based, human; conditions: for IC50: HL-60, initial 30 min exposure, read-out: ID50, M (HL-60 TdR into DNA (B)); for B/A: ratio of ID50 for TdR incorporation (B) to ID50 for cell growth (A), HL-60
# Protocol: For precursor incorporation studies, each compound at four to six concentrations (0.2% DMSO) was preincubated with HL-60 cells (2.5×10^6 /Ml) for 15 min prior to the addition of [^3 H-methyl]TdR (1 μCi, 0.15 nmol/mL) and was incubated for 30 min. […] The incorporation of radioactivity in DNA in the absence of an analogue in the presence of DMSO was used as a control.
# [5] = system: cancer; conditions: literature; cited from earlier work
# [6] = system: Topo II; experiment: Heat reversal of protein-linked DNA complex; format: biochemical, human (HL-60); conditions: 65 degrees C
# Protocol: This experiment concerns Topoisomerase II (Topo II)-mediated DNA cleavage activity induced by chrysophanol derivatives. 3-(bis[2-chloroethyl]amino)methyl-1,8-dihydroxy-9,10-anthraquinone (SK-31662) and 3-(2-hydroxyethylamino)methyl-1,8-dihydroxy-9,10-anthraquinone (SK-31694) have antileukemic activity with IC>es of 0.14 and 0.86 uM, respectively. SK-31662 and SK-31694 inhibit kDNA decatenation at 48 and 38 uM, respectively.
# [7] = system: DNA topoisomerase II; conditions: literature; cited from earlier work
# [8] = Mus musculus, L1210, Table I, read-out: ID50 (the source's name)
# [9] = Mus musculus, L1210, Table I, read-out: ID50 (μg/mL)
# [10] = Mus musculus, Table IV, L1210, 72 h exposure, read-out: ID50, M (L1210 cell growth)
Molecule,"IC50 ([1]; Homo sapiens, 0.2% DMSO)","IC50 [3, 10]","IC50 ([4]; Homo sapiens, 0.5 h)",B/A [4],also measured
"3-[(Diethylamino)methyl]-(or 8)-hydroxy-8(or 1)-methoxy-9,10-anthraquinone [Xa-1]",–,–,–,2.7,"IC50 ([1]; 0.2% DMSO): 5.2 µM; interaction with DNA [2]: interact with both native and thermally denatured DNA but more strongly with native DNA; IC50 ([3]; Table II, antileukemic activity, read-out: L1210: ID50): 11.9 µM; IC50 [4]: 14 µM"
Cc1c2ccncc2c(C)c2c1[nH]c1ccc(O)cc12 [9-hydroxyellipticine],–,–,–,–,anticancer activity [5]: potent anticancer agent
"COc1cc([C@@H]2c3cc4c(cc3[C@@H](O[C@@H]3O[C@@H]5CO[C@@H](C)O[C@H]5[C@H](O)[C@H]3O)[C@H]3COC(=O)[C@H]23)OCO4)cc(OC)c1O [VP-16, etoposide, reference compound]",–,–,–,–,reversal of protein-linked DNA by heat [6]: reduced during 0.5 min exposure to 65 °C; stabilization of cleavable complex between DNA topoisomerase II and DNA [7]: stabilize the cleavable complex between DNA topoisomerase II and DNA
"CCN(CC)Cc1cc(O)c2c(c1)C(=O)c1cccc(O)c1C2=O [XIa-1, 3-[N,N-diethylamino)methyl-1,8-dihydroxy-9,10-anthraquinone]",1.8 µM,280 µM,14 µM,7.8,"interaction with DNA [2]: interact with both native and thermally denatured DNA but more strongly with native DNA; IC50 [3, 8]: 2.8 µM; IC50 [3, 9]: 0.99 µg/mL; IC50 ([3]; Mus musculus, L1210, Table II, antileukemic activity, read-out: L1210: ID50): 2.75 µM"
"CCNCc1cc(O)c2c(c1)C(=O)c1cccc(O)c1C2=O [XIa-5, 3-[N-ethylamino)methyl-1,8-dihydroxy-9,10-anthraquinone]",8.7 µM,–,18 µM,2.1,"IC50 [3, 8]: 0.77 µM; IC50 [3, 9]: 0.26 µg/mL"
NCc1cc(O)c2c(c1)C(=O)c1cccc(O)c1C2=O [XIa-8],11 µM,8.5 µM,25 µM,2.3,–
"COc1cc(O)c2c(c1)C(=O)c1cc(CN(CCCl)CCCl)cc(O)c1C2=O [XIb-3, 3-[N,N-bis(2-chloroethyl)amino]methyl-1,8-dihydroxy-6-methoxy-9,10-anthraquinone]",–,–,–,19.7,"IC50 ([1]; 0.2% DMSO): 0.61 µM; interaction with DNA on increase of salt concentration [2]: lost the ability to interact with DNA; ID50 ([3]; Table I): 0.010 µg/mL; IC50 ([3]; Table I, read-out: ID50 (the source's name)): 0.023 µM; IC50 [4]: 12 µM"
"COc1cc(O)c2c(c1)C(=O)c1cc(CNCCCl)cc(O)c1C2=O [XIb-7, 3-[N-(2-chloroethyl)amino]methyl-1,8-dihydroxy-6-methoxy-9,10-anthraquinone]",–,–,220 µM,23.9,"IC50 ([1]; Homo sapiens): 9.2 µM; reversal of DNA induced changes in absorption spectra by Me2SO ([2]; Me2 SO to 1:1 v/v): could be reversed by addition of Me2 SO; interaction with DNA on increase of salt concentration [2]: lost the ability to interact with DNA; IC50 ([3]; Mus musculus, L1210, 72 h, read-out: ID50, M (L1210 cell growth)): 18 µM"
COc1cccc2c1C(=O)c1c(O)c3c(c(O)c1C2=O)C[C@@](O)(C(=O)CO)C[C@@H]3O[C@H]1C[C@H](N)[C@H](O)[C@H](C)O1 [adriamycin],–,–,–,–,stabilization of cleavable complex between DNA topoisomerase II and DNA [7]: stabilize the cleavable complex between DNA topoisomerase II and DNA
Cc1c2ccncc2c(C)c2c1[nH]c1ccccc12 [ellipticine],–,–,–,–,stabilization of cleavable complex between DNA topoisomerase II and DNA [7]: stabilize the cleavable complex between DNA topoisomerase II and DNA
"COc1cc(NS(C)(=O)=O)ccc1Nc1c2ccccc2nc2ccccc12 [m-AMSA, 4'-(9-acridinylamino) methanesulfon-m-aniside]",–,–,–,–,effect on DNA topoisomerase II reactions [7]: inhibits the topoisomerization and catenation reactions of DNA topoisomerase II

# More lines, main results first:
"IC50 ([1]; Homo sapiens, 0.2% DMSO)","IC50 [3, 10]","IC50 ([4]; Homo sapiens, 0.5 h)",Molecule,B/A [4],also measured
2.7 µM,2.2 µM,9.3 µM,CN(C)Cc1cc(O)c2c(c1)C(=O)c1cccc(O)c1C2=O [XIa-9],3.3,–
4.1 µM,4.6 µM,25 µM,CCCCNCc1cc(O)c2c(c1)C(=O)c1cccc(O)c1C2=O [XIa-10],6.1,–
3.2 µM,0.67 µM,16 µM,O=C1c2cccc(O)c2C(=O)c2c(O)cc(CNCCCO)cc21 [XIa-11],5.0,–
27 µM,27 µM,17 µM,CC(C)NC(=O)OCCN(CCOC(=O)NC(C)C)Cc1cc(O)c2c(c1)C(=O)c1cccc(O)c1C2=O [XIa-12],0.63,–
2.1 µM,1.6 µM,10 µM,O=C1c2cccc(O)c2C(=O)c2c(O)cc(CN3CCCC3)cc21 [XIa-13],4.8,–
2.8 µM,4 µM,63 µM,O=C1c2cccc(O)c2C(=O)c2c(O)cc(CN3CCCCC3)cc21 [XIa-14],22.5,–
4.8 µM,7.4 µM,43 µM,O=C1c2cccc(O)c2C(=O)c2c(O)cc(Cn3ccnc3)cc21 [XIa-15],9.0,–
3.4 µM,1.2 µM,35 µM,"CCN(CC)Cc1cc(O)c2c(c1)C(=O)c1cc(OC)cc(O)c1C2=O [XIb-1, 3-(N,N-diethylamino)methyl-1,8-dihydroxy-6-methoxy-9,10-anthraquinone]",10.3,"IC50 [3, 8]: 1.16 µM; IC50 [3, 9]: 0.51 µg/mL"
6.6 µM,14 µM,45 µM,"COc1cc(O)c2c(c1)C(=O)c1cc(CN(CCO)CCO)cc(O)c1C2=O [XIb-2, 3-[N,N-bis(2-hydroxyethyl)amino]methyl-1,8-dihydroxy-6-methoxy-9,10-anthraquinone]",5.2,"interaction with DNA [2]: interact with both native and thermally denatured DNA but more strongly with native DNA; IC50 [3, 8]: 13.7 µM; IC50 [3, 9]: 5.8 µg/mL"
2.1 µM,0.72 µM,13 µM,"CCNCc1cc(O)c2c(c1)C(=O)c1cc(OC)cc(O)c1C2=O [XIb-5, 3-(N-ethylamino)methyl-1,8-dihydroxy-6-methoxy-9,10-anthraquinone]",6.2,"IC50 [3, 8]: 0.44 µM; IC50 [3, 9]: 0.18 µg/mL"
1.6 µM,0.5 µM,12 µM,"COc1cc(O)c2c(c1)C(=O)c1cc(CNCCO)cc(O)c1C2=O [XIb-6, 3-[N-(2-hydroxyethyl)amino]methyl-1,8-dihydroxy-6-methoxy-9,10-anthraquinone]",7.5,"interaction with DNA [2]: interact with both native and thermally denatured DNA but more strongly with native DNA; IC50 [3, 8]: 0.19 µM; IC50 [3, 9]: 0.072 µg/mL"
